Where a name gives a salt, the structure may show the parent alone. Read-outs that look alike come from different tables or passages of the source.
Assays:
Type in all cases: biochemical
recombinant PRL-3 = molecular target: T1, recombinant PRL-3 (Homo sapiens, UniProt O75365); assay: In vitro phosphatase assay (DiFMUP hydrolysis), PRL-3
T1 construct: 6xHis (N, cleaved yes); made in house; host or cells: E. coli One Shot BL21 Star

recombinant PRL-2 = molecular target: T2, recombinant PRL-2 (Homo sapiens, UniProt Q12974); assay: In vitro phosphatase assay (DiFMUP hydrolysis), PRL-2;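 also: PRL-2 activity read as DiFMUP hydrolysis after 20 min at room temperature with drug, enzyme first pre-reduced at 4 °C for 20 min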
T2 construct: 6xHis (N, cleaved yes); made in house; host or cells: E. coli One Shot BL21 Star
T2 sequence (Q12974 1-167): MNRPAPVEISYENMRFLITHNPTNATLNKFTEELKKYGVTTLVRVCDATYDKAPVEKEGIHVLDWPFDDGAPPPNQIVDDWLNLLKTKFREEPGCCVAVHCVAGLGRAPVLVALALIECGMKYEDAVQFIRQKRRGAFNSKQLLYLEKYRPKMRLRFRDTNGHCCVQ

recombinant PRL-1 = molecular target: T3, recombinant PRL-1 (Homo sapiens, UniProt Q93096); assay: In vitro phosphatase assay (DiFMUP hydrolysis), PRL-1
T3 construct: 6xHis (N, cleaved yes); made in house; host or cells: E. coli One Shot BL21 Star
T3 sequence (Q93096 1-173): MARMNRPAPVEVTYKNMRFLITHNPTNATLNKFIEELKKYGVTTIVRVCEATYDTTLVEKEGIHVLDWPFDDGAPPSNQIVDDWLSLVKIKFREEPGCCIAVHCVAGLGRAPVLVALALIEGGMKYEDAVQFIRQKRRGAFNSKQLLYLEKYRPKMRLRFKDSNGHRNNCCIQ

[1] = FDA-approved drug screen, compared to DMSO
[2] = FDA-approved drug screen, activity compared to DMSO

T1 sequence (O75365 whole entry): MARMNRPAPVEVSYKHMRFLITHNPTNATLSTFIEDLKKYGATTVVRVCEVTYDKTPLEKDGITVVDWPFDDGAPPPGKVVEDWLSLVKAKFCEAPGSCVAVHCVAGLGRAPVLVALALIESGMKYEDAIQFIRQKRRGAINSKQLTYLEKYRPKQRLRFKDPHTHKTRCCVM

Molecule	% Phosphatase Activity (compared to DMSO) PRL-3 (recombinant PRL-3; [1]) [%]	% Phosphatase Activity (compared to DMSO) PRL-2 (recombinant PRL-2; [1]) [%]	% Phosphatase Activity (compared to DMSO) PRL-1 (recombinant PRL-1; [1]) [%]	other results
COC(=O)C1=C(C)NC(C)=C(C(=O)O[C@@H]2CCCN(Cc3ccccc3)C2)[C@@H]1c1cccc([N+](=O)[O-])c1.Cl (racemic) [Benidipine HCl]	94	107	91	–
Oxytocin (Syntocinon)	81	68	82	–
COC(=O)/C=C/C(=O)OC [Dimethyl Fumarate]	83	115	106	–
CCCNC(C)C(=O)Nc1ccccc1C (stereo not drawn) [Prilocaine]	78	107	97	–
COc1ncnc(NS(=O)(=O)c2ccc(N)cc2)c1OC [Sulfadoxine]	–	–	–	% Phosphatase Activity (compared to DMSO) PRL-3 (recombinant PRL-3; [2]): 76%; % Phosphatase Activity (compared to DMSO) PRL-2 (recombinant PRL-2; [2]): 106%; % Phosphatase Activity (compared to DMSO) PRL-1 (recombinant PRL-1; [2]): 110%
CCOC(=O)c1ccc(OC(=O)CCCCCN=C(N)N)cc1.CS(=O)(=O)O [Gabexate Mesylate]	80	103	93	–
CC(C)(C)Cn1c(N)nc2ccc(-c3[nH]c(C(C)(C)C)nc3-c3ccc(F)cc3)nc21 [LY2228820]	131	137	159	–
CN1CCC(=C2c3ccccc3C=Cc3ccccc32)CC1 [Cyproheptadine hydrochloride]	84	102	93	–
CCC1(c2cnc[nH]2)Cc2ccccc2C1 [Atipamezole]	87	109	94	–
Cc1ccccc1C(=O)Nc1ccc(C(=O)N2CCCC(O)c3cc(Cl)ccc32)c(C)c1 (stereo not drawn) [Tolvaptan]	–	–	–	% Phosphatase Activity (compared to DMSO) PRL-3 (recombinant PRL-3; [2]): 101%; % Phosphatase Activity (compared to DMSO) PRL-2 (recombinant PRL-2; [2]): 143%; % Phosphatase Activity (compared to DMSO) PRL-1 (recombinant PRL-1; [2]): 97%
NS(=O)(=O)c1cc2c(cc1Cl)N=C(CSCc1ccccc1)NS2(=O)=O [Benzthiazide]	99	115	111	–
CC(=O)Nc1ccccc1 [Acetanilide]	81	110	110	–
[H]/N=C(/N)NS(=O)(=O)c1ccc(N)cc1 [Sulfaguanidine]	–	–	–	% Phosphatase Activity (compared to DMSO) PRL-3 (recombinant PRL-3; [2]): 77%; % Phosphatase Activity (compared to DMSO) PRL-2 (recombinant PRL-2; [2]): 90%; % Phosphatase Activity (compared to DMSO) PRL-1 (recombinant PRL-1; [2]): 97%
CCCCC(CC)COC(=O)CC(C(=O)OCC(CC)CCCC)S(=O)(=O)O (stereo not drawn) [Docusate Sodium, reference compound]	–	–	–	% Phosphatase Activity (compared to DMSO) PRL-3 (recombinant PRL-3): 34%; IC50 (recombinant PRL-3; 2.5 µM protein, DiFMUP at KM, read-out: Calculated IC50, PRL-3 phosphatase activity): 43 ± 5 µM; % Phosphatase Activity (compared to DMSO) PRL-2 (recombinant PRL-2): 63%; IC50 (recombinant PRL-2; 2.5 µM protein, DiFMUP at KM, read-out: Calculated IC50, PRL-2 phosphatase activity): 140 ± 44 µM; % Phosphatase Activity (compared to DMSO) PRL-1 (recombinant PRL-1): 64%; IC50 (recombinant PRL-1; 2.5 µM protein, DiFMUP at KM, read-out: Calculated IC50, PRL-1 phosphatase activity): 94 ± 26 µM
Cc1cc(-n2c(=O)[nH]c(=O)n(C)c2=O)ccc1Oc1ccc(SC(F)(F)F)cc1 [Toltrazuril]	–	–	–	% Phosphatase Activity (compared to DMSO) PRL-3 (recombinant PRL-3; [2]): 73%; % Phosphatase Activity (compared to DMSO) PRL-2 (recombinant PRL-2; [2]): 93%; % Phosphatase Activity (compared to DMSO) PRL-1 (recombinant PRL-1; [2]): 88%
NC(=O)[C@@H](CCC(F)(F)F)N(Cc1ccc(-c2ncon2)cc1F)S(=O)(=O)c1ccc(Cl)cc1 [Avagacestat (BMS-708163)]	73	85	89	–
O=C(O)CCCCCCCC(=O)O [Azelaic acid]	95	98	94	–
CCN(CC)Cc1cc(Nc2ccnc3cc(Cl)ccc23)ccc1O.Cl.Cl.O.O [Amodiaquin (dihydrochloride dihydrate)]	77	74	84	–
Nc1ccn([C@H]2CC[C@@H](CO)O2)c(=O)n1 [Zalcitabine]	–	–	–	% Phosphatase Activity (compared to DMSO) PRL-3 (recombinant PRL-3; [2]): 89%; % Phosphatase Activity (compared to DMSO) PRL-2 (recombinant PRL-2; [2]): 105%; % Phosphatase Activity (compared to DMSO) PRL-1 (recombinant PRL-1; [2]): 93%
COc1cc2/c(=N/c3ccc(Br)cc3F)nc[nH]c2cc1OCC1CCN(C)CC1 [Vandetanib (ZD6474)]	–	–	–	% Phosphatase Activity (compared to DMSO) PRL-3 (recombinant PRL-3; [2]): 77%; % Phosphatase Activity (compared to DMSO) PRL-2 (recombinant PRL-2; [2]): 98%; % Phosphatase Activity (compared to DMSO) PRL-1 (recombinant PRL-1; [2]): 96%
CN1CCN(c2ccc3nc(-c4c(N)c5c(F)cccc5[nH]c4=O)[nH]c3c2)CC1 [Dovitinib (TKI-258, CHIR-258)]	74	96	87	–
C=CC1=C(C(=O)O)N2C(=O)[C@@H](NC(=O)/C(=N\OCC(=O)O)c3csc(N)n3)[C@H]2SC1 [Cefixime]	90	90	89	–
CCOC(=O)[C@H](CCc1ccccc1)N[C@H]1CCc2ccccc2N(CC(=O)O)C1=O [Benazepril HCl]	78	80	91	–
CN(Cc1cc(Br)cc(Br)c1N)C1CCCCC1 [Bromhexine HCl]	86	122	95	–
COc1ccc2[n-]c([S+]([O-])Cc3ncc(C)c(OC)c3C)nc2c1.COc1ccc2[n-]c([S+]([O-])Cc3ncc(C)c(OC)c3C)nc2c1.[Mg+2] (stereo not drawn) [Esomeprazole Magnesium]	93	88	84	–
Cl.Cl.OCCN1CCN(CCCN2c3ccccc3Sc3ccc(C(F)(F)F)cc32)CC1 [Fluphenazine (dihydrochloride)]	88	101	94	–
CCCCOc1ccc(C(=O)CCN2CCCCC2)cc1 [Dyclonine HCl]	102	103	91	–

Now from value to molecule, other results behind:

% Phosphatase Activity (compared to DMSO) PRL-3 (recombinant PRL-3; [1]) [%]	% Phosphatase Activity (compared to DMSO) PRL-2 (recombinant PRL-2; [1]) [%]	% Phosphatase Activity (compared to DMSO) PRL-1 (recombinant PRL-1; [1]) [%]	Molecule	other results
79	104	92	C#C[C@]1(O)CC[C@H]2[C@@H]3CCC4=CC(=O)CC[C@@H]4[C@H]3CC[C@@]21C [Norethindrone]	–
117	96	90	O=C1c2cccc3c2[C@H](CCC3)CN1[C@@H]1CN2CCC1CC2 [Palonosetron HCl]	–
62	75	62	CC1=CC(=O)c2ccccc2C1=O [Menadione]	–
92	109	121	Cn1cc(CNCC2CCN(c3ncc(C(=O)NO)cn3)CC2)c2ccccc21 [Quisinostat (JNJ-26481585)]	–
94	106	112	C[C@H](N)[C@H](O)c1cccc(O)c1 [Metaraminol Bitartrate]	–
96	131	116	CCCCc1oc2ccc(NS(C)(=O)=O)cc2c1C(=O)c1ccc(OCCCN(CCCC)CCCC)cc1 [Dronedarone HCl]	–
68	108	94	N=C(N)N/N=C/c1c(Cl)cccc1Cl [Guanabenz Acetate]	–
74	17	40	CC(/C=C1\SC(=S)N(CC(=O)O)C1=O)=C\c1ccccc1 [Epalrestat]	–
91	72	85	Cn1cnc2c(F)c(Nc3ccc(Br)cc3F)c(C(=O)NOCCO)cc21 [MEK162 (ARRY-162, ARRY-438162)]	–
110	136	146	OCc1cc(C(O)CNCCCCCCOCCCCc2ccccc2)ccc1O (stereo not drawn) [Salmeterol Xinafoate]	–
71	106	96	COc1ccc2c(c1)c(CC(=O)O)c(C)n2C(=O)c1ccc(Cl)cc1 [Indomethacin]	–
70	98	90	COc1cc([C@@H]2c3cc4c(cc3[C@@H](O[C@@H]3O[C@@H]5CO[C@@H](C)O[C@H]5[C@H](O)[C@H]3O)[C@H]3COC(=O)[C@H]23)OCO4)cc(OC)c1O [Etoposide]	–
